{"source": "patent US9168269B2", "about": "“Inhibitors of long and very long chain fatty acid metabolism as broad spectrum anti-virals” (THE TRUSTEES OF PRINCETON UNIVERSITY, priority 2010, dated 2015)", "key": {"[1]": {"test_system": "HCV JFH1 strain derivative", "test": "release of infectious HCV from Huh7.5 cells, TCID50 assay", "procedure": "Huh7.5 cells were infected with a derivative of HCV JFH1 strain (MOI=0.1 TCID50/cell). Infected cells were maintained in medium containing 10% fetal calf serum plus DMSO (0 nM triacsin C) or triacsin C at the indicated concentrations. Media were harvested at 72 h and infectious virus was quantified by standard TCID50 assay on Huh7.5 cells.\nVirus yield in the medium at 72 h after infection was determined.\nHuh7.5 cells were infected a derivative of HCV JFH1 strain (MOI=0.1 TCID50/cell) Infected cells were maintained in medium containing 10% fetal calf serum plus DMSO (0 μg/ml TOFA) or TOFA at the indicated doses. Media were harvested at 72 h and infectious virus was quantified by standard TCID50 assay on Huh7.5 cells.\nHuh7.5 cells which was infected with HCV and treated with indicated amounts of TOFA (FIG. 21)."}, "[2]": {"test_system": "influenza A", "type": "cell-based", "conditions": "for magnitude of the therapeutic effect: 10 μg/mL TOFA"}, "[3]": {"test_system": "host cell"}, "[4]": {"test_system": "HCMV AD169 strain", "test": "microbe, parasite or virus in culture", "type": "cell-based, human cytomegalovirus", "conditions": "5 μg/ml"}, "[5]": {"test_system": "HCMV", "test": "proposed combination of TOFA and triacsin C, virus replication", "type": "cell-based, human cytomegalovirus", "conditions": "for magnitude of the therapeutic effect: 10 μg/mL TOFA"}, "[6]": {"test_system": "viral growth and/or replication", "test": "proposed combination of TOFA and ELOVL inhibitor, virus replication", "type": "cell-based", "conditions": "presence of a therapeutically effective concentration of ELOVL inhibitor"}, "[7]": {"test_system": "HIV-1", "test": "proposed combination of TOFA and enfurtivide, HIV-1-infected C8166 cells", "type": "cell-based", "conditions": "for magnitude of the therapeutic effect: 10 μg/mL TOFA", "source_text": "Non-limiting examples of assays that could be performed to assess the effect of a combination of an ACC inhibitor and an entry inhibitor on HIV-1 replication follow. Assays for TOFA-mediated antiviral activity using HIV-1-infected C8166 cells have been described in (WO 2009/023059). In each assay, various concentrations of TOFA can be combined with various concentrations of enfurtivide and assayed for their effect on virus replication. In one preferred embodiment, a physiological concentration of enfurtivide is held constant as the dose of TOFA is increased. Control cultures are treated with no drug, enfurtivide alone or the various concentrations of TOFA alone. Samples are taken at 24, 48, 72 and 96 hours after initiation of drug treatment. The antiviral effect of enfurtivide plus each concentration of TOFA is then compared to the activity of enfurtivide alone or the various concentrations of TOFA alone. Uptake of neutral red dye is used to determine the relative level of toxicity in duplicate cultures at each time a sample is harvested. […] At 10 μg/mL of TOFA, the magnitude of the therapeutic effect is increased from ^˜10-fold in the absence of enfurtivide to ^˜100-fold in its presence. […] Similar results are obtained for other entry inhibitors."}}, "note": "Where “and” joins values, the source holds several entries; their conditions need not be identical. Equal values may be shown once. Read-outs that look alike come from different tables or passages of the source."}
{"compound": "CCCCCCCCCCCCCCOc1ccc(C(=O)O)o1", "note": "[TOFA]", "values": [{"measurement": "inhibition of release of infectious HCV particles", "setting": "[1]; 5 μg/ml", "value": "> 500", "unit": "fold"}, {"measurement": "inhibition of release of infectious HCV particles", "setting": "[1]; 10 μg/ml", "value": "> 1000", "unit": "fold"}, {"measurement": "magnitude of the therapeutic effect", "setting": "[2]; absence of oseltamivir", "value": "~10", "unit": "fold"}, {"measurement": "magnitude of the therapeutic effect", "setting": "[2]; presence of oseltamivir", "value": "~100", "unit": "fold"}, {"measurement": "concentration of TOFA required to produce a 10-fold reduction in influenza A replication", "setting": "[2]; TOFA alone", "value": "~10", "unit": "μg/mL"}, {"measurement": "concentration of TOFA required to produce a 10-fold reduction in influenza A replication", "setting": "[2]; presence of a pharmacologically acceptable concentration of oseltamivir", "value": "< 5", "unit": "μg/mL"}, {"measurement": "host cell toxicity, neutral red dye assay", "setting": "[3]; combined use of TOFA and enfurtivide", "value": "does not increase host cell toxicity"}, {"measurement": "host cell toxicity, neutral red dye assay", "setting": "[3]; combined use of TOFA and oseltamivir", "value": "does not increase host cell toxicity"}, {"measurement": "host cell toxicity, neutral red dye assay", "setting": "[3]; combined use of TOFA and triacsin C", "value": "does not increase host cell toxicity"}, {"measurement": "inhibition of HCMV replication", "setting": "[4]", "value": "> 500", "unit": "fold"}, {"measurement": "concentration of TOFA required to produce a 10-fold reduction in HCMV replication", "setting": "[5]", "value": "~10 μg/mL and < 5 μg/mL"}, {"measurement": "magnitude of the therapeutic effect", "setting": "[5]; absence of triacsin C", "value": "~10", "unit": "fold"}, {"measurement": "magnitude of the therapeutic effect", "setting": "[5]; presence of triacsin C", "value": "~100", "unit": "fold"}, {"measurement": "reduction of the TOFA concentration required to reduce viral growth and/or replication by 10-fold", "setting": "[6]", "value": "≥ 2", "unit": "fold"}, {"measurement": "magnitude of the therapeutic effect", "setting": "[7]; absence of enfurtivide", "value": "~10", "unit": "fold"}, {"measurement": "magnitude of the therapeutic effect", "setting": "[7]; presence of enfurtivide", "value": "~100", "unit": "fold"}, {"measurement": "concentration of TOFA required to produce a 10-fold reduction in HIV-1 replication", "setting": "[7]; TOFA alone", "value": "~10", "unit": "μg/mL"}, {"measurement": "concentration of TOFA required to produce a 10-fold reduction in HIV-1 replication", "setting": "[7]; presence of a pharmacologically acceptable concentration of enfurtivide", "value": "< 5", "unit": "μg/mL"}]}
